Experimental findings from US4318916A, “Antibiotic PS-5 and derivatives having β-lactamase inhibitory activity and production thereof” (Sanraku-Ocean Co., Ltd., priority 1977, dated 1982) are described below.

A short description of the data set: pH and heat stability of antibiotic PS-5 in aqueous solution. Format: physicochemical. The conditions noted are these: phosphate buffer, yellowish brown powder of Example 5. As for the experimental part: Phosphate buffer solutions of the indicated pH's were made by adjusting M/15 dipotassium phosphate to a desired pH with 5 N NaOH or 5 N phosphoric acid. To 1 milliliter of the antibiotic PS-5 solution, 1 milliliter of the phosphate buffer was added and, if necessary, the pH value was readjusted to the initial value. The antibiotic PS-5 solutions with varied pH's were kept at 60° C. for 30 minutes in a water bath, cooled in running water and neutralized to pH 7.0 with a small amount of 5 N NaOH or 5 N phosphoric acid. The control tube containing the antibiotic PS-5 solution of pH 7.0 was put in an ice bath for 30 minutes. The remaining antimicrobial activity was determined as described above, utilizing Comamonas terrigena B-996 as the assay microorganism. The results shown in the following table were calculated as percent of the control: […]

By amount remaining is commonly meant the share of the starting amount still present when the sample was taken. A lower amount remaining goes with more turnover. Turning to `CCC1C(=O)N2C(C(=O)O)=C(SCCNC(C)=O)CC12` (single isomer, unassigned) [Antibiotic PS-5], the share remaining at 0.5 h was 0% (pH 3, pH 3.0, 60° C. for 30 minutes, percent of control); 0% (pH 4, pH 4.0, 60° C. for 30 minutes); 9% (pH 5, pH 5.0, 60° C. for 30 minutes); 79% (pH 6, pH 6.0, 60° C. for 30 minutes); 76.5% (pH 7, pH 7.0, 60° C. for 30 minutes); 88.5% (pH 8, pH 8.0, 60° C. for 30 minutes). The compound further came in with a fraction remaining at 0.5 h (pH 9, pH 9.0, 60° C. for 30 minutes) of 82%.
